The target in one assay is PRMT5/MEP50 complex (Homo sapiens, UniProt O14744). As to the kind of experiment: Inhibition of recombinant human N-terminal FLAG-tagged PRMT5 (2 to end residues)/human N-terminal His-tagged MEP50 (2 to end residues) expressed in HEK293F cells using H4 peptide as substrate preincubated for 15 mins followed by substrate and [3H]SAM addition and measured after 1 hr by scintillation counting method.

Assay [1] deals with MV4-11. Nature of the assay: Antiproliferative activity against human MV4-11 cells supplemented with fresh medium containing compound every 4 days measured on day 8 by Celltiter-glo luminescent cell viability assay. Type of assay: functional.
Assay [2] concerns MV4-11. Nature of the assay: Antiproliferative activity against human MV4-11 cells supplemented with fresh medium containing compound every 4 days measured on day 12 by Celltiter-glo luminescent cell viability assay. Type of assay: functional.

PRMT5/MEP50 complex, sequence (O14744 whole entry): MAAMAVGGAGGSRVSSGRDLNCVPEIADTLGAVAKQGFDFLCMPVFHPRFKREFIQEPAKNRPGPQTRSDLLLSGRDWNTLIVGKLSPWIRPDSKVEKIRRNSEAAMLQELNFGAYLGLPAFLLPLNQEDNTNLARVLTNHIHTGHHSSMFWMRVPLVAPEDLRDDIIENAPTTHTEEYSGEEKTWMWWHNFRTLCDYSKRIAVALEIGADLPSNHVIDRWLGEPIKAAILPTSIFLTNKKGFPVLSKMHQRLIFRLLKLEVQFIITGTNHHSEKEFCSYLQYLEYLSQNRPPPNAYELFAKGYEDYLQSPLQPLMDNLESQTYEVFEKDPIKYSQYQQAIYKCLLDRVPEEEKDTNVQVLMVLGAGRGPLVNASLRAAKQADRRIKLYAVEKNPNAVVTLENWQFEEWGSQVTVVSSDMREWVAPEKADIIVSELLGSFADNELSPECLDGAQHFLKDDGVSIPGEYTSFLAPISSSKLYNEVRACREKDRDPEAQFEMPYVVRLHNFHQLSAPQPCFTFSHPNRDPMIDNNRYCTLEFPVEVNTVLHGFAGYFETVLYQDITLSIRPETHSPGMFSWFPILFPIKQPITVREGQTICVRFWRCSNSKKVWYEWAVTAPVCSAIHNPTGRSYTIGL
PRMT5/MEP50 complex, sequence (Q9BQA1 whole entry, further chain): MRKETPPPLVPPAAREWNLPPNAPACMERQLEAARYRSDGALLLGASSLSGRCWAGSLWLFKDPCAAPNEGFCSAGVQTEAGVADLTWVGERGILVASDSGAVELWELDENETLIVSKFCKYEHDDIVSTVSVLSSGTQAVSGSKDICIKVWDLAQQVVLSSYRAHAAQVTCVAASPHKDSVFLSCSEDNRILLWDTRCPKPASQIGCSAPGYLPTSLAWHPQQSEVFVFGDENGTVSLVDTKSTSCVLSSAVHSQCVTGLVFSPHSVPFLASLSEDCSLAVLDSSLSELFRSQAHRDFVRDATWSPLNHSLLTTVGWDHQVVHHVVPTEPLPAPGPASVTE

For `O=C(NCC(O)CN1CCc2ccccc2C1)c1cc2c(s1)CCN(C(=O)Oc1ccccc1)C2` (stereo not drawn), the IC50 on PRMT5/MEP50 complex stood at 50 nM.
Take `O=C(NC[C@H](O)CN1CCc2ccccc2C1)c1cc(NC2COC2)ncn1`: the GI50 worked out at 212 nM in the assay with MV4-11 [1] and 106 nM in the assay with MV4-11 [2].
As to `COc1ccc(C(=O)N2CCc3sc(C(=O)NCC(O)CN4CCc5ccccc5C4)cc3C2)cc1` (stereo not drawn), at PRMT5/MEP50 complex, the IC50 was found to be 20 nM. Further, the GI50 was determined as 216 nM in the assay with MV4-11 [1] and 85.6 nM with MV4-11 [2].
The corresponding values for `O=C(NCC(O)CN1CCc2ccccc2C1)c1cc2c(s1)CCN(C(=O)c1ccc([N+](=O)[O-])cc1)C2` (stereo not drawn) are 19 nM, 201 nM and 141 nM.
As for `CN(C)c1ccc(C(=O)N2CCc3ccc(C(=O)NCC(O)CN4CCc5ccccc5C4)cc3C2)cc1` (stereo not drawn), the IC50 at PRMT5/MEP50 complex came out at 40 nM.
Still for that read-out and setting: the same measure for `CCCN1CCc2sc(C(=O)NCC(O)CN3CCc4ccccc4C3)cc2C1` (stereo not drawn): 1100 nM.
With `COc1ccc(C(=O)N2CCc3cc(C(=O)NC[C@H](O)CN4CCc5ccccc5C4)ccc3C2)cc1`, on PRMT5/MEP50 complex, the IC50 is 13 nM. The GI50 is 37 nM with MV4-11 [1] and 23 nM in the assay with MV4-11 [2].
Taken in the same sequence, the figures for `O=C(NCC(O)CN1CCc2ccccc2C1)c1cc2c(s1)CCN(C(=O)c1ccc(F)cc1)C2` (stereo not drawn) were 30 nM, 199 nM and 126 nM.
For `O=C(NCC(O)CN1CCc2ccccc2C1)c1cc2c(s1)CCN(c1ccccc1)C2` (stereo not drawn), the concentration for half-maximal inhibition (IC50) at PRMT5/MEP50 complex was 260 nM.
Same read-out and setting: the same measure for `O=C(NCC(O)CN1CCc2ccccc2C1)c1cc2c(s1)CCN(Cc1ccccc1)C2` (stereo not drawn): 240 nM.
Turning to `O=C(NCC(O)CN1CCc2ccccc2C1)c1cc2c(s1)CCN(C(=O)c1ccc(Cl)cc1)C2` (stereo not drawn), the IC50 on PRMT5/MEP50 complex is 23 nM. For the same compound, the GI50 is 147 nM in the assay with MV4-11 [1] and 162 nM with MV4-11 [2].
Turning to `CN(C)c1ccc(C(=O)N2Cc3ccc(C(=O)NCC(O)CN4CCc5ccccc5C4)cc3C2)cc1` (stereo not drawn), the IC50 on PRMT5/MEP50 complex turned out to be 17 nM. The GI50 with MV4-11 [1] came out at 128 nM; in the assay with MV4-11 [2], 92 nM.
The corresponding values for `COc1ccc(C(=O)N2CCc3cc(C(=O)NC[C@@H](O)CN4CCc5ccccc5C4)ccc3C2)cc1` are 33 nM, 333 nM and 213 nM.
The corresponding values for `Cc1ccc(C(=O)N2CCc3sc(C(=O)NCC(O)CN4CCc5ccccc5C4)cc3C2)cc1` (stereo not drawn) are 32.5 nM, 135 nM and 110 nM.
On to `O=C(NCC(O)CN1CCc2ccccc2C1)c1cc2c(s1)CCN(C(=O)c1ccc(N3CCC3)cc1)C2` (stereo not drawn), for which, on PRMT5/MEP50 complex, the 50% inhibitory concentration (IC50) came out at 44 nM.
As for `COc1ccc(C(=O)N2CCc3cc(C(=O)NCC(O)CN4CCc5ccccc5C4)ccc3C2)cc1` (stereo not drawn), on PRMT5/MEP50 complex, the IC50 is 23 nM. Further, the GI50 was found to be 35 nM in the assay with MV4-11 [1] and 32 nM with MV4-11 [2].
In the case of `CC(C)(C)c1ccc(C(=O)N2CCc3sc(C(=O)NCC(O)CN4CCc5ccccc5C4)cc3C2)cc1` (stereo not drawn), at PRMT5/MEP50 complex, the IC50 came out at 19 nM. Also, the 50% growth inhibitory concentration (GI50) with MV4-11 [1] was found to be 415 nM; in the assay on MV4-11 [2], 186 nM.
The corresponding values for `O=C(NCC(O)CN1CCc2ccccc2C1)c1cc2c(s1)CCN(C(=O)c1cccc(F)c1)C2` (stereo not drawn) are 31.5 nM, 314 nM and 166 nM.
Taken in the same sequence, the figures for `CN(C)c1ccc(C(=O)N2CCc3cc(C(=O)NC[C@H](O)CN4CCc5ccccc5C4)ccc3C2)cc1` were 11 nM, 75 nM and 53 nM.
Taken in the same sequence, the figures for `O=C(NCC(O)CN1CCc2ccccc2C1)c1cc2c(s1)CCN(C(=O)c1cccs1)C2` (stereo not drawn) were 37 nM, 324 nM and 168 nM.
On to `CC(c1ccccc1)N1CCc2sc(C(=O)NCC(O)CN3CCc4ccccc4C3)cc2C1` (stereo not drawn), for which the IC50 at PRMT5/MEP50 complex was found to be 60 nM. The GI50 in the assay on MV4-11 [1] was found to be 436 nM; in the assay on MV4-11 [2], 172 nM.
Taken in the same sequence, the figures for `CC(=O)c1ccc(C(=O)N2CCc3sc(C(=O)NCC(O)CN4CCc5ccccc5C4)cc3C2)cc1` (stereo not drawn) were 19 nM, 193 nM and 89 nM.
The corresponding values for `CN(C)c1ccc(C(=O)N2CCc3cc(C(=O)NCC(O)CN4CCc5ccccc5C4)ccc3C2)cc1` (stereo not drawn) are 17 nM, 70 nM and 36 nM.
Consider `CN1CCc2sc(C(=O)NCC(O)CN3CCc4ccccc4C3)nc2C1` (stereo not drawn), for which the IC50 at PRMT5/MEP50 complex is 1200 nM.
`N#Cc1ccc(C(=O)N2CCc3sc(C(=O)NCC(O)CN4CCc5ccccc5C4)cc3C2)cc1` (stereo not drawn): the IC50 at PRMT5/MEP50 complex came to 25 nM. Moreover, the GI50 worked out at 258 nM with MV4-11 [1] and 135 nM in the assay on MV4-11 [2].
Take `O=C(NCC(O)CN1CCc2ccccc2C1)c1cc2c(s1)CCN(C1CCOCC1)C2` (stereo not drawn): the IC50 on PRMT5/MEP50 complex worked out at 460 nM.
On to `O=C(NCC(O)CN1CCc2ccccc2C1)c1cc2c(s1)CCN(C(=O)CCc1ccccc1)C2` (stereo not drawn), for which the IC50 at PRMT5/MEP50 complex came to 47 nM. For the same compound, the results for the GI50 with MV4-11 [1] and in the assay on MV4-11 [2] were 304 nM and 185 nM, respectively.
As to `O=C(NCC(O)CN1CCc2ccccc2C1)c1cc2c(s1)CCN(C1CCCCC1)C2` (stereo not drawn), on PRMT5/MEP50 complex, the IC50 was 130 nM.
As to `Cc1c(C(=O)NCC(O)CN2CCc3ccccc3C2)sc2c1CN(C(=O)c1ccc(N(C)C)cc1)CC2` (stereo not drawn), at PRMT5/MEP50 complex, the IC50 stood at 23 nM. In addition, the values for the concentration for 50% growth inhibition (GI50) in the assay on MV4-11 [1] and in the assay on MV4-11 [2] were 169 nM and 101 nM, respectively.
The corresponding values for `O=C(NCC(O)CN1CCc2ccccc2C1)c1cc2c(s1)CCN(C(=O)c1ccc(C(F)(F)F)cc1)C2` (stereo not drawn) are 49 nM, 204 nM and 134 nM.
With `O=C(NCC(O)CN1CCc2ccccc2C1)c1ccc2c(c1)CCN(C(=O)c1ccc(Br)cc1)C2` (stereo not drawn), on PRMT5/MEP50 complex, the IC50 came to 11 nM. For the same compound, the figures for the GI50 in the assay on MV4-11 [1] and with MV4-11 [2] were 45 nM and 34 nM, respectively.
The corresponding values for `O=C(NCC(O)CN1CCc2ccccc2C1)c1cc2c(s1)CCN(C(=O)c1ccccc1)C2` (stereo not drawn) are 39 nM, 184 nM and 154 nM.
Taken in the same sequence, the figures for `O=C(NCC(O)CN1CCc2ccccc2C1)c1cc2c(s1)CCN(C(=O)c1ccccc1F)C2` (stereo not drawn) were 45 nM, 261 nM and 124 nM.
The corresponding values for `O=C(NCC(O)CN1CCc2ccccc2C1)c1cc2c(s1)CCN(C(=O)Cc1ccccc1)C2` (stereo not drawn) are 50 nM, 256 nM and 147 nM.
With `CN(C)c1ccc(C(=O)N2CCc3sc(C(=O)NCC(O)CN4CCc5ccccc5C4)cc3C2)cc1` (stereo not drawn), on PRMT5/MEP50 complex, the IC50 is 23 nM. In addition, the GI50 with MV4-11 [1] was 197 nM; in the assay on MV4-11 [2], 143 nM.
As for `CN1CCc2oc(C(=O)NCC(O)CN3CCc4ccccc4C3)cc2C1` (stereo not drawn), the half-maximal inhibitory concentration (IC50) at PRMT5/MEP50 complex worked out at 1900 nM.
On to `O=C(NCC(O)CN1CCc2ccccc2C1)c1cc2c(s1)CCN(C(=O)c1ccc(Br)cc1)C2` (stereo not drawn), for which the IC50 on PRMT5/MEP50 complex amounted to 18 nM. In addition, the GI50 came out at 181 nM in the assay on MV4-11 [1] and 66 nM with MV4-11 [2].
Taken in the same sequence, the figures for `O=C(NCC(O)CN1CCc2ccccc2C1)c1cc2c(s1)CCN(C(=O)c1ccc3ccccc3c1)C2` (stereo not drawn) were 22 nM, 322 nM and 178 nM.
Take `O=C(NCC(O)CN1CCc2ccccc2C1)c1cc2c(s1)CCN(S(=O)(=O)c1ccccc1)C2` (stereo not drawn): the IC50 at PRMT5/MEP50 complex turned out to be 91 nM. Besides, the results for the GI50 in the assay on MV4-11 [1] and in the assay on MV4-11 [2] were 375 nM and 209 nM, respectively.
For `CN1CCc2[nH]c(C(=O)NCC(O)CN3CCc4ccccc4C3)cc2C1` (stereo not drawn), the IC50 on PRMT5/MEP50 complex is 1900 nM.
Same read-out and setting: the result for `CN1CCc2sc(C(=O)NCC(O)CN3CCc4ccccc4C3)cc2C1` (stereo not drawn) reads 475 nM.

The values above are taken from ChEMBL document CHEMBL4411309, “Discovery of 2-substituted-N-(3-(3,4-dihydroisoquinolin-2(1H)-yl)-2-hydroxypropyl)-1,2,3,4-tetrahydroisoquinoline-6-carboxamide as potent and selective protein arginine methyltransferases 5 inhibitors: Design, synthesis and biological evaluation” (Eur J Med Chem, 2019).
